Legend:
Palbociclib = compound: CC(=O)c1c(C)c2cnc(Nc3ccc(N4CCNCC4)cn3)nc2n(C2CCCC2)c1=O [Palbociclib]; details: max 10 µM
Method in brief: (§1)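 Cancer cell lines were seeded in 1536-well plates in 7.5 μl DMEM/F12 or RPMI with 10% FBS, held 24 hours at 37°C and 5% CO2, then dosed for 72 hours (final DMSO typically 0.2%). Viability was read by CellTiter-Glo 2.0 luminescence and scaled between blank-well and DMSO-well means. The single-agent IC50 comes from dose responses fitted to a two-parameter logistic curve with a non-linear mixed effects model.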

Taselisib = compound: Cc1nc(-c2cn3c(n2)-c2ccc(-c4cnn(C(C)(C)C(N)=O)c4)cc2OCC3)n(C(C)C)n1 [Taselisib]; details: max 10 µM
Method in brief: as §1

Prexasertib = compound: COc1cccc(OCCCN)c1-c1cc(Nc2cnc(C#N)cn2)n[nH]1 [Prexasertib]; details: max 1 µM
Method in brief: as §1

AZD1390 = compound: CC(C)n1c(=O)n(C)c2cnc3cc(F)c(-c4ccc(OCCCN5CCCCC5)nc4)cc3c21 [AZD1390]; details: max 0.3 µM
Method in brief: as §1

Crizotinib = compound: C[C@@H](Oc1cc(-c2cnn(C3CCNCC3)c2)cnc1N)c1c(Cl)ccc(F)c1Cl [Crizotinib]; details: max 10 µM
Method in brief: as §1

Paclitaxel = compound: CC(=O)O[C@H]1C(=O)[C@@]2(C)[C@H]([C@H](OC(=O)c3ccccc3)[C@]3(O)C[C@H](OC(=O)[C@H](O)[C@@H](NC(=O)c4ccccc4)c4ccccc4)C(C)=C1C3(C)C)[C@]1(OC(C)=O)CO[C@@H]1C[C@@H]2O [Paclitaxel]; details: max 3 µM
Method in brief: as §1

Alisertib = compound: COc1cc(Nc2ncc3c(n2)-c2ccc(Cl)cc2C(c2c(F)cccc2OC)=NC3)ccc1C(=O)O [Alisertib]; details: max 10 µM
Method in brief: as §1

Doxorubicin = compound: COc1cccc2c1C(=O)c1c(O)c3c(c(O)c1C2=O)C[C@@](O)(C(=O)CO)C[C@@H]3O[C@H]1C[C@H](N)[C@H](O)[C@H](C)O1 [Doxorubicin]; details: max 1 µM
Method in brief: as §1

Carboplatin = compound: C1CC(C1)(C(=O)[O-])C(=O)[O-].N.N.[Pt+2] [Carboplatin]; details: max 10 µM
Method in brief: as §1

Venetoclax = compound: CC1(C)CCC(CN2CCN(c3ccc(C(=O)NS(=O)(=O)c4ccc(NCC5CCOCC5)c([N+](=O)[O-])c4)c(Oc4cnc5[nH]ccc5c4)c3)CC2)=C(c2ccc(Cl)cc2)C1 [Venetoclax]; details: max 1 µM
Method in brief: as §1

Gemcitabine = compound: Nc1ccn([C@@H]2O[C@H](CO)[C@@H](O)C2(F)F)c(=O)n1 [Gemcitabine]; details: max 0.3 µM
Method in brief: as §1

SN-38 = compound: CCc1c2c(nc3ccc(O)cc13)-c1cc3c(c(=O)n1C2)COC(=O)[C@]3(O)CC [SN-38]; details: max 0.3 µM
Method in brief: as §1

SG3199 = compound: CC1=CN2[C@@H](C1)C=NC3=CC(=C(C=C3C2=O)OC)OCCCCCOC4=C(C=C5C(=C4)N=C[C@@H]6CC(=CN6C5=O)C)OC [SG3199]; details: max 0.001 µM
Method in brief: as §1

Gefitinib = compound: COc1cc2ncnc(Nc3ccc(F)c(Cl)c3)c2cc1OCCCN1CCOCC1 [Gefitinib]; details: max 10 µM
Method in brief: as §1

AZD6738 = compound: C[C@@H]1COCCN1C2=NC(=NC(=C2)C3(CC3)[S@](=N)(=O)C)C4=C5C=CNC5=NC=C4 [AZD6738]; details: max 10 µM
Method in brief: as §1

5-Fluorouracil = compound: O=c1[nH]cc(F)c(=O)[nH]1 [5-Fluorouracil]; details: max 20 µM
Method in brief: as §1

AZD5363 = compound: C1CN(CCC1(C(=O)N[C@@H](CCO)C2=CC=C(C=C2)Cl)N)C3=NC=NC4=C3C=CN4 [AZD5363]; details: max 10 µM
Method in brief: as §1

AZD2811 = compound: CCN(CCO)CCCOc1ccc2c(Nc3cc(CC(=O)Nc4cccc(F)c4)[nH]n3)ncnc2c1 [AZD2811]; details: max 1 µM
Method in brief: as §1

AZD1775 = compound: C=CCn1c(=O)c2cnc(Nc3ccc(N4CCN(C)CC4)cc3)nc2n1-c1cccc(C(C)(C)O)n1 [AZD1775]; details: max 3 µM
Method in brief: as §1

[1] = compound: O=C(Nc1ccc2[nH]nc(-c3ccncc3)c2c1)[C@@H]1CCN(CC(=O)N2CCN(c3ccc(-c4ncccn4)cc3)CC2)C1; details: max 5 µM
Method in brief: as §1

AZD4320 = compound: CN(CC[C@H](CSC1=CC=CC=C1)NC2=C(C=C(C=C2)S(=O)(=O)NC(=O)C3=CC=C(C=C3)N4CCC(CC4)[C@H](C5=CC=CC=C5C6=CC=C(C=C6)Cl)O)S(=O)(=O)C(F)(F)F)CCO [AZD4320]; details: max 1 µM
Method in brief: as §1

AZD5991 = compound: Cc1c2c(nn1C)CSCc1cc(n(C)n1)CSc1cc(c3ccccc3c1)OCCCc1c(C(=O)O)n(C)c3c-2c(Cl)ccc13 [AZD5991]; details: max 1 µM
Method in brief: as §1

SRA737 = compound: N#Cc1cnc(Nc2cc(NC[C@H]3CNCCO3)c(C(F)(F)F)cn2)cn1 [SRA737]; details: max 10 µM
Method in brief: as §1

AZD0156 = compound: CN(C)CCCOc1ccc(-c2ccc3ncc4c(c3c2)n(C2CCOCC2)c(=O)n4C)cn1 [AZD0156]; details: max 3 µM
Method in brief: as §1

Lapatinib = compound: CS(=O)(=O)CCNCc1ccc(-c2ccc3ncnc(Nc4ccc(OCc5cccc(F)c5)c(Cl)c4)c3c2)o1 [Lapatinib]; details: max 10 µM
Method in brief: as §1

Etoposide = compound: COc1cc([C@@H]2c3cc4c(cc3[C@@H](O[C@@H]3O[C@@H]5CO[C@@H](C)O[C@H]5[C@H](O)[C@H]3O)[C@H]3COC(=O)[C@H]23)OCO4)cc(OC)c1O [Etoposide]; details: max 10 µM
Method in brief: as §1

Selumetinib = compound: Cn1cnc2c(F)c(Nc3ccc(Br)cc3Cl)c(C(=O)NOCCO)cc21 [Selumetinib]; details: max 10 µM
Method in brief: as §1

Trametinib = compound: CC(=O)Nc1cccc(-n2c(=O)n(C3CC3)c(=O)c3c(Nc4ccc(I)cc4F)n(C)c(=O)c(C)c32)c1 [Trametinib]; details: max 1 µM
Method in brief: as §1

MK-2206 = compound: NC1(c2ccc(-c3nc4ccn5c(=O)[nH]nc5c4cc3-c3ccccc3)cc2)CCC1 [MK-2206]; details: max 10 µM
Method in brief: as §1

AZD8186 = compound: C[C@@H](Nc1cc(F)cc(F)c1)c1cc(C(=O)N(C)C)cc2c(=O)cc(N3CCOCC3)oc12 [AZD8186]; details: max 10 µM
Method in brief: as §1

Savolitinib = compound: C[C@@H](c1ccc2nccn2c1)n1nnc2ncc(-c3cnn(C)c3)nc21 [Savolitinib]; details: max 1 µM
Method in brief: as §1

AZD5153 = compound: COc1nnc2ccc(N3CCC(c4ccc(OCCN5CCN(C)C(=O)[C@H]5C)cc4)CC3)nn12 [AZD5153]; details: max 1 µM
Method in brief: as §1

Olaparib = compound: O=C(c1cc(Cc2n[nH]c(=O)c3ccccc23)ccc1F)N1CCN(C(=O)C2CC2)CC1 [Olaparib]; details: max 10 µM
Method in brief: as §1

Dasatinib = compound: CC1=C(C(=CC=C1)Cl)NC(=O)C2=CN=C(S2)NC3=CC(=NC(=N3)C)N4CCN(CC4)CCO [Dasatinib]; details: max 2 µM
Method in brief: as §1

AZD7648 = compound: Cc1cc2ncnn2cc1Nc1ncc2c(n1)n(C1CCOCC1)c(=O)n2C [AZD7648]; details: max 10 µM
Method in brief: as §1

| Cell Line | IC50, cell viability 72 h (Palbociclib) | IC50, cell viability 72 h (Taselisib) | IC50, cell viability 72 h (Prexasertib) | IC50, cell viability 72 h (AZD1390) | IC50, cell viability 72 h (Crizotinib) | IC50, cell viability 72 h (Paclitaxel) | IC50, cell viability 72 h (Alisertib) | IC50, cell viability 72 h (Doxorubicin) | IC50, cell viability 72 h (Carboplatin) | IC50, cell viability 72 h (Venetoclax) | IC50, cell viability 72 h (Gemcitabine) | IC50, cell viability 72 h (SN-38) | IC50, cell viability 72 h (SG3199) | IC50, cell viability 72 h (Gefitinib) | IC50, cell viability 72 h (AZD6738) | IC50, cell viability 72 h (5-Fluorouracil) | IC50, cell viability 72 h (AZD5363) | IC50, cell viability 72 h (AZD2811) | IC50, cell viability 72 h (AZD1775) | IC50, cell viability 72 h [1] | IC50, cell viability 72 h (AZD4320) | IC50, cell viability 72 h (AZD5991) | IC50, cell viability 72 h (SRA737) | IC50, cell viability 72 h (AZD0156) | IC50, cell viability 72 h (Lapatinib) | IC50, cell viability 72 h (Etoposide) | IC50, cell viability 72 h (Selumetinib) | IC50, cell viability 72 h (Trametinib) | IC50, cell viability 72 h (MK-2206) | IC50, cell viability 72 h (AZD8186) | IC50, cell viability 72 h (Savolitinib) | IC50, cell viability 72 h (AZD5153) | IC50, cell viability 72 h (Olaparib) | IC50, cell viability 72 h (Dasatinib) | IC50, cell viability 72 h (AZD7648) |
| --- | --- | --- | --- | --- | --- | --- | --- | --- | --- | --- | --- | --- | --- | --- | --- | --- | --- | --- | --- | --- | --- | --- | --- | --- | --- | --- | --- | --- | --- | --- | --- | --- | --- | --- | --- |
| EW-22 (Ewing's Sarcoma) | > 10000 nM | 936 nM | 7.62 nM | > 300 nM | 3930 nM | 19.2 nM | 563 nM | 64.8 nM | > 10000 nM | 720 nM | 6.06 nM | 1.31 nM | > 1 nM | > 10000 nM | 1400 nM | > 20000 nM | > 10000 nM | 78.8 nM | 694 nM | > 5000 nM | 178 nM | > 1000 nM | 3010 nM | > 3000 nM | > 10000 nM | 1150 nM | > 10000 nM | > 1000 nM | > 10000 nM | > 10000 nM | > 1000 nM | 982 nM | 1730 nM | > 2000 nM | > 10000 nM |
| H4 (Low Grade Glioma) | 6450 nM | 3680 nM | 60.4 nM | > 300 nM | 3000 nM | 32.4 nM | 312 nM | 157 nM | > 10000 nM | > 1000 nM | 22.3 nM | 23.3 nM | > 1 nM | > 10000 nM | 3600 nM | 9690 nM | 6250 nM | > 1000 nM | 108 nM | > 5000 nM | > 1000 nM | > 1000 nM | > 10000 nM | > 3000 nM | > 10000 nM | 2000 nM | > 10000 nM | > 1000 nM | > 10000 nM | 3800 nM | > 1000 nM | 164 nM | > 10000 nM | > 2000 nM | > 10000 nM |
| HCC38 (Breast Carcinoma) | > 10000 nM | > 10000 nM | 80.4 nM | > 300 nM | > 10000 nM | 296 nM | > 10000 nM | > 1000 nM | > 10000 nM | > 1000 nM | 172 nM | 69.5 nM | > 1 nM | > 10000 nM | > 10000 nM | > 20000 nM | > 10000 nM | > 1000 nM | 430 nM | > 5000 nM | 503 nM | > 1000 nM | > 10000 nM | > 3000 nM | > 10000 nM | > 10000 nM | > 10000 nM | > 1000 nM | > 10000 nM | > 10000 nM | > 1000 nM | > 1000 nM | > 10000 nM | > 2000 nM | > 10000 nM |
| HCT-116 (Colorectal Carcinoma) | 8690 nM | 2170 nM | 635 nM | > 300 nM | 2760 nM | 3.24 nM | 1070 nM | 218 nM | > 10000 nM | > 1000 nM | 13.1 nM | 19 nM | > 1 nM | > 10000 nM | 6970 nM | 10600 nM | > 10000 nM | > 1000 nM | 1960 nM | 129 nM | > 1000 nM | > 1000 nM | > 10000 nM | > 3000 nM | > 10000 nM | 5460 nM | 2500 nM | 16.3 nM | > 10000 nM | > 10000 nM | > 1000 nM | 244 nM | > 10000 nM | > 2000 nM | > 10000 nM |
| HLE (Hepatocellular Carcinoma) | > 10000 nM | > 10000 nM | 107 nM | > 300 nM | > 10000 nM | 60.3 nM | 2230 nM | 426 nM | > 10000 nM | > 1000 nM | 114 nM | 14.3 nM | > 1 nM | > 10000 nM | 4910 nM | > 20000 nM | > 10000 nM | > 1000 nM | 625 nM | > 5000 nM | > 1000 nM | > 1000 nM | > 10000 nM | > 3000 nM | > 10000 nM | > 10000 nM | > 10000 nM | > 1000 nM | > 10000 nM | > 10000 nM | > 1000 nM | > 1000 nM | > 10000 nM | > 2000 nM | > 10000 nM |
